biological target: T1, human NaV1.8 (Homo sapiens, UniProt Q9Y5Y9); test: Electrophysiology: voltage-clamp recordings (whole-cell automated patch clamp, Qube384); format: cell-based; conditions: HEK-NaV1.8 with b3 recombinant cell line, ambient room temperature, read-out: Potency category (human NaV1.8 IC50)
T1 construct: expressed in transfected cells; host or cells: HEK
Procedure: The following NaV1.8 recombinant cell line was used for recordings: HEK-NaV1.8 (NM_006514.1) with b3 (NM_018400.3).
Sodium currents were measured using the patch clamp technique in the whole-cell configuration using the Qube384 (Sophion A/S, Copenhagen, Denmark) automated voltage clamp platform. "Multi hole" plates were used for the cell line expressing NaV1.8 while "single hole" plates were used for the recombinant cell lines expressing the other subtypes. Appropriate filters (for minimum seal resistance and minimum current size) and series resistance compensation (for high quality sodium channel recordings) were applied. Data was collected at ambient room temperature.
The recording […] solution contained (in mM): NaCl 145 mM, KCl 4 mM, CaCl2 2 mM, MgCl2 1 mM, HEPES 10 mM, Glucose 10 mM, pH 7.4 (NaOH). The […] recording solution contained (in mM): CsF 120 mM, CsCl 20 mM, NaCl 10 mM, EGTA 10 mM, HEPES 10 mM, pH 7.2 (CsOH). Currents were recorded at 25 kHz sampling frequency and filtered at 5 kHz. Series resistance compensation was applied at 65%.
Vehicle (VEH) is the control condition where cells are exposed to 0.3 % DMSO without compound. All runs include VEH controls being exposed to the same voltage protocols to assess non-compound related phenomena such as run down and then used to isolate compound dependent effects on currents.
To check for state-dependence inhibition, the following voltage-sequence was applied every 20 seconds: From a resting membrane potential of-120 mV, the first test pulse (P1; 20 ms to -10 mV) was applied to check for channels in the Resting State followed by a brief recovery (20 ms to -120 mV), then holding the membrane voltage to V1/2 (4 seconds at voltage to obtain half the channel at Rest and half Inactivated) with a subsequent second test pulse (P2; 20 ms to -10 mV) to check for channels in the Inactivated State, followed by another brief recovery (20 ms to -120 mV) and a final third test pulse (P3; 20 ms to -10 mV) to check for recovered channels.
To check for frequency-dependent inhibition, a 10 Hz protocol and a 20 Hz protocol were applied; namely,
From a resting membrane potential of -120 mV, 40-pulses (10 ms to -10 mV) was applied at 10 Hz (at 100 ms between pulses) and then at 20 Hz (at 50 ms between pulses).
Each parameter was recorded (P1, P2, P3, P40 from 10Hz and P40 from 20Hz) during a control period (lasting ~ 5 minutes) when establishing the baseline and during compound period (lasting ~ 12 minutes) when test compound (or vehicle) was applied. For each parameter, the value at the end of the compound period was normalized to the vehicle baseline; as follows Normalized Inhibition (NormCPD) = (CPD Valueend CPD period)/(VEH Valueend Control Period) [formula]
To adjust for any variance in the Na^+ current signal during the compound period (owing to cumulative inactivation independent of compound or shifts in biophysics over time), a dedicated segment of the recording wells in each 384 plate were dedicated to having only vehicle exposure. These vehicle-only recordings were used to correct for any apparent "run-up" or "run-down" in the experiment. Normalized Inhibition (NormVEH) = (VEH Valueend CPD period)/(VEH Valueend Control Period) [formula]
The adjusted inhibition was calculated as follows: % Inhibitioncorrected = 100 × (NormCPD −NormVEH)/(100−NormVEH) [formula]
Percent inhibition was determined and IC50 values were calculated using a 4 parameter logistic model within XLFit Software (IDBS, Boston MA): % Inhibitioncorrected = A + ((B−A))/((1 + (((x)/(C)))^D) [formula] where A and B are the maximal and minimum inhibition respectively, C is the IC50 concentration and D is the (Hill) slope.

T1 sequence (Q9Y5Y9 whole entry): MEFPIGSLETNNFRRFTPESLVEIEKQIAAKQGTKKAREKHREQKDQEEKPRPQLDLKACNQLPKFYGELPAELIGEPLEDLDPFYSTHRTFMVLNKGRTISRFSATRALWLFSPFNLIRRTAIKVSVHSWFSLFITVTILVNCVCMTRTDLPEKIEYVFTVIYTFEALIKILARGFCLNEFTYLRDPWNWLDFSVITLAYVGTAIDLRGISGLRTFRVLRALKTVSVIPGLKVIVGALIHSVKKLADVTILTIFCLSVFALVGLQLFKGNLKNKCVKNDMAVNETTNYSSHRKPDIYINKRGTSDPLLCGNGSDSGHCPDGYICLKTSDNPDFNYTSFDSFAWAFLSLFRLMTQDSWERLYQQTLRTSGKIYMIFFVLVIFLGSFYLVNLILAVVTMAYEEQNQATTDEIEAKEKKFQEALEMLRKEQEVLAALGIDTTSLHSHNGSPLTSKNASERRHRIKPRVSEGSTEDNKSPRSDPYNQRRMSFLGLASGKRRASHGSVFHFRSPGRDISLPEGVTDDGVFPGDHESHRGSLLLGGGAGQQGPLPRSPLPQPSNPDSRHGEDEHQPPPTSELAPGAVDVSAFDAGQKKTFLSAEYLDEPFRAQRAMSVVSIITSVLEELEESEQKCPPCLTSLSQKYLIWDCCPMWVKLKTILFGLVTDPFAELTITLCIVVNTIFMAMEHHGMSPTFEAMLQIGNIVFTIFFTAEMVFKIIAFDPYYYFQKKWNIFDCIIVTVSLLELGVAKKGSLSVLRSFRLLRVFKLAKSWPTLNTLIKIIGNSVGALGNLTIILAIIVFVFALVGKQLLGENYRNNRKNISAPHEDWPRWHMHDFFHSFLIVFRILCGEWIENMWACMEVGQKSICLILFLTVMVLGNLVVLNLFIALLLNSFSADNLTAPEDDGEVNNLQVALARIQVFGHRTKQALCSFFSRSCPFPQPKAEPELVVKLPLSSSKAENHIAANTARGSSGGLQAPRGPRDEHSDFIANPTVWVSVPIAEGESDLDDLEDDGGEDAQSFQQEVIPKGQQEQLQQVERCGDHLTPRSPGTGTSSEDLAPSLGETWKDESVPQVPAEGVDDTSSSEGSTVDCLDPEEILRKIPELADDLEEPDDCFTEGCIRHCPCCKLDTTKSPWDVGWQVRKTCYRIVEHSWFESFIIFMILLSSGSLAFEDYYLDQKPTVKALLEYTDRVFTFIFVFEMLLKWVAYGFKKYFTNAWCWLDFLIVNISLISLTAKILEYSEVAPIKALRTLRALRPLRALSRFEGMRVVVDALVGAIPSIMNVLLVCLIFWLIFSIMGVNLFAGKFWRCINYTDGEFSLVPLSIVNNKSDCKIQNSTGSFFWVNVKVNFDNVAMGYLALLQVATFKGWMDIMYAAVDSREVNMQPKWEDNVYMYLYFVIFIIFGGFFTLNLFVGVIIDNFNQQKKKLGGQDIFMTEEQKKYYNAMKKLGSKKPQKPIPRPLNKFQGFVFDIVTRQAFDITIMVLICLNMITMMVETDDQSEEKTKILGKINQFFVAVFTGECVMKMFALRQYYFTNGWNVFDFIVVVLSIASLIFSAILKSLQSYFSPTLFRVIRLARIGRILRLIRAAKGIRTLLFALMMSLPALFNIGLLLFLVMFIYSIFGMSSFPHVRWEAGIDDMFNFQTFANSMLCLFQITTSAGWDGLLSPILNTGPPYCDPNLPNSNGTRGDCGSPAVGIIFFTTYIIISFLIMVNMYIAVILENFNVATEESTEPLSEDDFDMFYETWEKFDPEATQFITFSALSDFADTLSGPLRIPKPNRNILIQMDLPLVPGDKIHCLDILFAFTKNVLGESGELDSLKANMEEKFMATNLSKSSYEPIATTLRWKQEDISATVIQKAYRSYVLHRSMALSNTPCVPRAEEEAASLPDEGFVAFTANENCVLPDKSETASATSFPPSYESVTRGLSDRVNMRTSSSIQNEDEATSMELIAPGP
T1 sequence (Q9NY72 23-215 partner): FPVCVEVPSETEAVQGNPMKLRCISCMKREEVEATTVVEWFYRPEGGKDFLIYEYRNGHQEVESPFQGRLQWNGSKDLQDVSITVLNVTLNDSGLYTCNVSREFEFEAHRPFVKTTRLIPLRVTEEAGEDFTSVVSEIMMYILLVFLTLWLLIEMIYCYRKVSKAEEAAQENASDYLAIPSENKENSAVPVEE

First: NS(=O)(=O)c1cccc(NC(=O)c2c3ccccc3nn2CC2CCCO2)c1 (racemic) [SC-16, N-(3-sulfamoylphenyl)-2-((tetrahydrofuran-2-yl)methyl)-2H-indazole-3-carboxamide]
Second: NS(=O)(=O)c1cccc(NC(=O)c2c3ccccc3nn2CC2CCOCC2)c1 [SC-15, N-(3-sulfamoylphenyl)-2-((tetrahydro-2H-pyran-4-yl)methyl)-2H-indazole-3-carboxamide]
The IC50 of the first is higher: 1000 to 10000 nM for the first, 100 to 1000 nM for the second.

First: C[C@@H](C1CCCCC1)n1nc2ccccc2c1C(=O)Nc1cccc(S(C)(=O)=O)c1 (single isomer, unassigned) [SC-74a]
Second: C[C@H](C1CCCCC1)n1nc2ccccc2c1C(=O)Nc1cccc(S(C)(=O)=O)c1 (single isomer, unassigned) [SC-74b]
The IC50 of the first is lower: 100 to 1000 nM for the first, 1000 to 10000 nM for the second.

Cc1ccc(Cl)c2c(C(=O)Nc3ccnc(C(N)=O)c3)n(CC3CCC(F)(F)C3)nc12 (single isomer, unassigned) [SC-82a, N-(2-carbamoylpyridin-4-yl)-4-chloro-2-((3,3-difluorocyclopentyl)methyl)-7-methyl-2H-indazole-3-carboxamide] and O=C(Nc1ccnc(O)c1)c1c2ccc(F)cc2nn1CC1CCC(F)(F)CC1 [SC-06, 2-((4,4-difluorocyclohexyl)methyl)-6-fluoro-N-(2-hydroxypyridin-4-yl)-2H-indazole-3-carboxamide] cannot be ordered by IC50: no more than 100 nM for the first, 100 to 1000 nM for the second.

First: Cc1ccc(Cl)c2c(C(=O)Nc3ccnc(C(N)=O)c3)n(CC3CCC(F)(F)C3)nc12 (single isomer, unassigned) [SC-82b, N-(2-carbamoylpyridin-4-yl)-4-chloro-2-((3,3-difluorocyclopentyl)methyl)-7-methyl-2H-indazole-3-carboxamide]
Second: O=C(Nc1ccnc(O)c1)c1c2ccccc2nn1CC1CCC(F)(F)CC1 [SC-24, 2-[(4,4-difluorocyclohexyl)methyl]-N-(2-hydroxypyridin-4-yl)indazole-3-carboxamide]
The IC50 of the first is lower: no more than 100 nM for the first, 1000 to 10000 nM for the second. The first is the more potent here.

Cc1ccc(Cl)c2c(C(=O)Nc3cccc(S(N)(=O)=O)c3)n(CC3CCCCO3)nc12 (single isomer, unassigned) [SC-84a, 4-chloro-7-methyl-N-(3-sulfamoylphenyl)-2-((tetrahydro-2H-pyran-2-yl)methyl)-2H-indazole-3-carboxamide] and Cc1cccc2c(C(=O)Nc3ccnc(S(N)(=O)=O)c3)n(C[C@H]3CCCCO3)nc12 (single isomer, unassigned) [SC-88b] cannot be ordered by IC50: no more than 100 nM for the first, no more than 100 nM for the second.

O=C(Nc1ccnc(O)c1)c1c2ccc(F)cc2nn1CC1CCCCC1 [SC-05, 2-(cyclohexylmethyl)-6-fluoro-N-(2-hydroxypyridin-4-yl)indazole-3-carboxamide] and O=C(Nc1ccnc(O)c1)c1c2cc(F)ccc2nn1CC1CCCCC1 [SC-32, 2-(cyclohexylmethyl)-5-fluoro-N-(2-hydroxypyridin-4-yl)indazole-3-carboxamide] cannot be ordered by IC50: no more than 100 nM for the first, 100 to 1000 nM for the second.

O=C(Nc1ccnc(O)c1)c1c2ccccc2nn1CC1CCCCC1 [SC-10, 2-(cyclohexylmethyl)-N-(2-hydroxypyridin-4-yl)-2H-indazole-3-carboxamide] and O=C(Nc1ccnc(O)c1)c1c2ccccc2nn1CC1CCCCCC1 [SC-13, 2-(cyclohcptylmethyl)-N-(2-hydroxypyridin-4-yl)indazole-3-carboxamide] fall in the same range of IC50: 100 to 1000 nM for the first, 100 to 1000 nM for the second.

CS(=O)(=O)c1cccc(NC(=O)c2c3ccc(F)cc3nn2CC2CCCCC2)c1 [SC-11, 2-(cyclohexylmethyl)-6-fluoro-N-(3-methylsulfonylphenyl)indazole-3-carboxamide] and NS(=O)(=O)c1cccc(NC(=O)c2c3ccc(F)cc3nn2CC2CCCCC2)c1 [SC-28, 2-(cyclohexylmethyl)-6-fluoro-N-(3-sulfamoylphenyl)indazole-3-carboxamide] cannot be ordered by IC50: no more than 100 nM for the first, no more than 100 nM for the second.

Compared with O=C(Nc1cc[nH]c(=O)c1)c1c2ccccc2nn1CC1CCC1 [SC-12, 2-(cyclobutylmethyl)-N-(2-oxo-1,2-dihydropyridin-4-yl)-2H-indazole-3-carboxamide], Cc1cccc2c(C(=O)Nc3cc[nH]c(=O)c3)n(CC3CCCCC3)nc12 [SC-43, 2-(cyclohexylmethyl)-7-methyl-N-(2-oxo-1,2-dihydropyridin-4-yl)-2H-indazole-3-carboxamide] is lower in IC50: 1000 to 10000 nM for the first, no more than 100 nM for the second. The second is the more potent here.

Compared with CS(=O)(=O)c1cccc(NC(=O)c2c3ccccc3nn2CC2CCOCC2)c1 [SC-14, N-(3-methylsulfonylphenyl)-2-(oxan-4-ylmethyl)indazole-3-carboxamide], CS(=O)(=O)c1cccc(NC(=O)c2c3ccccc3nn2CC2CCCCC2)c1 [SC-37, 2-(cyclohexylmethyl)-N-(3-methylsulfonylphenyl)indazole-3-carboxamide] is lower in IC50: 1000 to 10000 nM for the first, no more than 100 nM for the second. The second is the more potent here.

First: NC(=O)c1cccc(NC(=O)c2c3ccccc3nn2CC2CCCCC2)c1 [SC-17, N-(3-carbamoylphenyl)-2-(cyclohexylmethyl)indazole-3-carboxamide]
Second: CC(C)(O)c1cccc(NC(=O)c2c3ccccc3nn2CC2CCCCC2)c1 [SC-26, 2-(cyclohexylmethyl)-N-(3-(2-hydroxypropan-2-yl)phenyl)-2H-indazole-3-carboxamide]
The IC50 of the first is lower: no more than 100 nM for the first, 1000 to 10000 nM for the second. The first is the more potent here.

C[S+]([O-])c1cccc(NC(=O)c2c3ccc(F)cc3nn2CC2CCCCC2)c1 (centres unmarked) [SC-19, 2-(cyclohexylmethyl)-6-fluoro-N-(3-(methylsulfinyl)phenyl)-2H-indazole-3-carboxamide] and O=C(Nc1ccnc(O)c1)c1c2cccc(F)c2nn1CC1CCCCC1 [SC-20, 2-(cyclohexylmethyl)-7-fluoro-N-(2-hydroxypyridin-4-yl)indazole-3-carboxamide] fall in the same range of IC50: 100 to 1000 nM for the first, 100 to 1000 nM for the second.

First: NC(=O)c1cc(NC(=O)c2c3ccccc3nn2CC2CCOCC2)ccc1F [SC-21, N-(3-Carbamoyl-4-fluorophenyl)-2-((tetrahydro-2H-pyran-4-yl)methyl)-2H-indazole-3-carboxamide]
Second: NC(=O)c1cc(NC(=O)c2c3ccccc3nn2CC2CCC(F)(F)CC2)ccc1F [SC-25, N-(3-carbamoyl-4-fluorophenyl)-2-[(4,4-difluorocyclohexyl)methyl]indazole-3-carboxamide]
The IC50 of the first is higher: 1000 to 10000 nM for the first, 100 to 1000 nM for the second.

CS(=O)(=O)c1cccc(NC(=O)c2c3ccccc3nn2CC2CCC(F)(F)CC2)c1 [SC-22, 2-[(4,4-difluorocyclohexyl)methyl]-N-(3-methylsulfonylphenyl)indazole-3-carboxamide] and NS(=O)(=O)c1cccc(NC(=O)c2c3ccc(F)cc3nn2CC2CCC(F)(F)CC2)c1 [SC-38, 2-[(4,4-difluorocyclohexyl)methyl]-6-fluoro-N-(3-sulfamoylphenyl)indazole-3-carboxamide] cannot be ordered by IC50: 100 to 1000 nM for the first, no more than 100 nM for the second.

Compared with CS(=O)(=O)n1cc(NC(=O)c2c3ccccc3nn2CC2CCCCC2)cn1 [SC-36, 2-(cyclohexylmethyl)-N-(1-(methylsulfonyl)-1H-pyrazol-4-yl)-2H-indazole-3-carboxamide], Cn1ccc(NC(=O)c2c3ccccc3nn2CC2CCCCC2)cc1=O [SC-39, 2-(cyclohexylmethyl)-N-(1-methyl-2-oxo-1,2-dihydropyridin-4-yl)-2H-indazole-3-carboxamide] is higher in IC50: 100 to 1000 nM for the first, 1000 to 10000 nM for the second. The first is the more potent here.

O=C(Nc1ccnc(O)c1)c1c2cccc(C(F)(F)F)c2nn1CC1CCCCC1 [SC-42, 2-(cyclohexylmethyl)-N-(2-hydroxypyridin-4-yl)-7-(trifluoromethyl)indazole-3-carboxamide] and CS(=O)(=O)c1cccc(NC(=O)c2c3cccc(C(F)(F)F)c3nn2CC2CCCCC2)c1 [SC-44, 2-(cyclohexylmethyl)-N-(3-methylsulfonylphenyl)-7-(trifluoromethyl)indazole-3-carboxamide] cannot be ordered by IC50: no more than 100 nM for the first, no more than 100 nM for the second.

Source: patent EP4385980A1, “INDAZOLES AS INHIBITORS OF NAV1.8” (Grünenthal GmbH, priority 2022, dated 2024)
